Data as given in patent US5001115A, “Prodrugs of biologically active hydroxyaromatic compounds” (University of Florida, priority 1989, dated 1991).

Assay: Hydrolysis in pH=7.1 buffer at room temperature
Format: physicochemical
Protocol: The compounds: [drawing 4] were prepared similarly to the above product and their hydrolytic properties under similar conditions were evaluated.

In the case of `O=C1CCC(=O)N1COc1ccc([N+](=O)[O-])cc1` [(b)], the half-life (similar conditions (pH=7.1 buffer, room temperature)) is reported as ~6 h.

For `O=C(NCOc1ccc([N+](=O)[O-])cc1)c1ccccc1` [Compound (a)], the “hydrolytic stability (in words)” value (pH=7.1, similar conditions) was “completely stable”.

In the case of `O=C1c2ccccc2S(=O)(=O)N1COc1ccc([N+](=O)[O-])cc1` [Example 1, 4-Nitro-1-[1',1',3'-trioxo-(2'H)-1',2'-benzisothiazol-2'-yl]methoxybenzene], the half-life (pH=7.1 buffer, room temperature) is reported as ~0.283 h.
